Results from US9718804B2, “GSK-3 inhibitors” (BRISTOL-MYERS SQUIBB COMPANY, priority 2013, dated 2017).
Read-outs that look alike come from different tables or passages of the source.

Assays:
GSK3α = GSK3α (Homo sapiens, UniProt P49840); assay: GSK3α kinase assay (Caliper LabChip, fluoresceinated peptide substrate); type: biochemical
Method: (§1) The kinase assay was performed in V-bottom 384-well plates. […] The reaction was incubated at room temperature for 20 hours and terminated by adding 45 μl of 35 mM EDTA to each sample. The reaction mixture was analyzed on the Caliper LabChip3000 (Caliper, Hopkinton, Mass.) by electrophoretic separation of the unphosphorylated substrate and phosphorylated product. […] Compounds were dissolved at 10 mM in dimethylsulfoxide (DMSO) and evaluated at eleven concentrations. IC50 values were derived by non-linear regression analysis.

pTau = pTau assay (no method described); type: cell-based
GSK3β = GSK3β (Homo sapiens, UniProt P49841); assay: GSK3β kinase assay (Caliper LabChip, fluoresceinated peptide substrate); type: biochemical
Method: as §1

[1] = first value of the cell, 250 pM enzyme, 20 uM ATP, 20 hours at room temperature, read-out: GSK3β/α (nM): GSK3β IC50

Sequence of GSK3α (P49840 whole entry, species assumed): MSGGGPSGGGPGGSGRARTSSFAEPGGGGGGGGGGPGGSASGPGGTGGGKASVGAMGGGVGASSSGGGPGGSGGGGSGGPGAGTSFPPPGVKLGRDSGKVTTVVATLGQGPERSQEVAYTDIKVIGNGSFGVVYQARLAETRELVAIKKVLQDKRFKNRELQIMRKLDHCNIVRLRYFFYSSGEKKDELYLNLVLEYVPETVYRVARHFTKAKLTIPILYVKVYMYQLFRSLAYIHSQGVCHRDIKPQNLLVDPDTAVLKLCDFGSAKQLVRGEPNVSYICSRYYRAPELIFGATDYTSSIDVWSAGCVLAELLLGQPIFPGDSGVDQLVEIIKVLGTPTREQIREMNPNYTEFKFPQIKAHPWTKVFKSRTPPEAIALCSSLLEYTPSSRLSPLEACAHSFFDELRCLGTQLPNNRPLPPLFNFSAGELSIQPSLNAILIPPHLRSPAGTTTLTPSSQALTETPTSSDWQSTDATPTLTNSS
Sequence of GSK3β (P49841 whole entry, species assumed): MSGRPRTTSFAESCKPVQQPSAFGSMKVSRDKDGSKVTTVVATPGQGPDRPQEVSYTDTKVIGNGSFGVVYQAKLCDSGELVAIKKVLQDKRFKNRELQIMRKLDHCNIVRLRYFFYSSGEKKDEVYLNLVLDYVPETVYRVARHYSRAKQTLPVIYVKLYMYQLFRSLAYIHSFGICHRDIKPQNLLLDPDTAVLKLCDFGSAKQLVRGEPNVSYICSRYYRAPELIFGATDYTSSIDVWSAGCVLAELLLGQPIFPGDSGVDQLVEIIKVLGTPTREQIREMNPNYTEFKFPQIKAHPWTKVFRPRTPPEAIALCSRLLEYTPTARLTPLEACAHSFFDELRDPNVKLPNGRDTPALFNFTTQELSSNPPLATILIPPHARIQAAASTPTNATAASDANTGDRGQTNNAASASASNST

Row | Compound | IC50 (GSK3α) | IC50 (pTau) | IC50 (GSK3β; [1]) | IC50 (GSK3α; second value of the cell, 250 pM enzyme, 20 uM ATP, 20 hours at room temperature, read-out: GSK3β/α (nM): GSK3α IC50) | IC50 (GSK3β)
1 | CC1(c2cc(Cl)ncc2NC(=O)c2ccnc(Nc3ccc(C(F)(F)F)cn3)c2)OCCO1 [Example 76, N-(6-Chloro-4-(2-methyl-1,3-dioxolan-2-yl)pyridin-3-yl)-2-((5-(trifluoromethyl)pyridin-2-yl)amino)isonicotinamide] | 0.2 nM | 13 nM | 0.32 nM | – | –
2 | O=C(Nc1ccnnc1)c1ccnc(Nc2ccc(C(F)(F)F)cn2)c1 [Example 196, N-(Pyridazin-4-yl)-2-((5-(trifluoromethyl)pyridin-2-yl)amino)isonicotinamide] | 25 nM | 7400 nM | 80 nM | – | –
3 | CCC1(c2cc(Cl)ncc2NC(=O)c2ccnc(Nc3ccccn3)c2)OCCO1 [Example 108, N-(6-Chloro-4-(2-ethyl-1,3-dioxolan-2-yl)pyridin-3-yl)-2-(pyridin-2-ylamino)isonicotinamide] | – | 30 nM | – | 0.95 nM | 1.4 nM
4 | O=C(Nc1cnccc1-c1ccc(Cl)cc1)c1ccnc(Nc2ccc(Cl)cn2)c1 [Example 60, N-(4-(4-Chlorophenyl)pyridin-3-yl)-2-((5-chloropyridin-2-yl)amino)isonicotinamide] | 1.2 nM | 270 nM | 2.7 nM | – | –
5 | O=C(Nc1cnccc1-c1ccc(F)cc1)c1ccnc(Nc2ccc(C(F)(F)F)cn2)c1 [Example 50, N-(4-(4-Fluorophenyl)pyridin-3-yl)-2-((5-(trifluoromethyl)pyridin-2-yl)amino)isonicotinamide] | 0.86 nM | 54 nM | 2.1 nM | – | –
6 | COc1cccc(Nc2cc(C(=O)Nc3cncc(-c4ccccc4F)c3)ccn2)n1 [Example 139, N-(5-(2-Fluorophenyl)pyridin-3-yl)-2-((6-methoxylpyridin-2-yl)amino)isonicotinamide] | 3.2 nM | 1300 nM | 5.4 nM | – | –
7 | CCOc1ccncc1NC(=O)c1ccnc(Nc2ccc(C)cn2)c1 [Example 14, N-(4-Ethoxypyridin-3-yl)-2-((5-methylpyridin-2-yl)amino)isonicotinamide] | 1.5 nM | 125 nM | 0.47 nM | – | –
8 | O=C(Nc1cncc(-c2ccccc2F)c1)c1ccnc(Nc2cccc(F)n2)c1 [Example 136, N-(5-(2-Fluorophenyl)pyridin-3-yl)-2-((6-fluoropyridin-2-yl)amino)isonicotinamide] | 2.7 nM | 1100 nM | 11 nM | – | –
9 | N#Cc1cnn(-c2cncc(NC(=O)c3ccnc(Nc4ccc(C(F)(F)F)cn4)c3)c2)c1 [Example 118, N-(5-(4-Cyano-1H-pyrazol-1-yl)pyridin-3-yl)-2-((5-(trifluoromethyl)pyridin-2-yl)amino)isonicotinamide] | – | 360 nM | 7.3 nM | – | –
10 | O=C(Nc1cnccn1)c1ccnc(Nc2ccc(C(F)(F)F)cn2)c1 [Example 189, N-(Pyrazin-2-yl)-2-((5-(trifluoromethyl)pyridin-2-yl)amino)isonicotinamide] | 4.3 nM | 1030 nM | 11 nM | – | –
11 | O=C(Nc1cnccc1-c1ccccc1)c1ccnc(Nc2cccc(C(F)(F)F)n2)c1 [Example 2, N-(4-Phenylpyridin-3-yl)-2-((6-(trifluoromethyl)pyridin-2-yl)amino)isonicotinamide] | 7.3 nM | 574 nM | 6.8 nM | – | –
12 | CC1(c2ccncc2NC(=O)c2ccnc(Nc3ccc(C(F)(F)F)cn3)c2)OCCO1 [Example 33, N-(4-(2-Methyl-1,3-dioxolan-2-yl)pyridin-3-yl)-2-((5-(trifluoromethyl)pyridin-2-yl)amino)isonicotinamide] | 0.18 nM | 0.55 nM | 0.29 nM | – | –
13 | O=C(Nc1cncc(-c2ccccc2F)n1)c1ccnc(Nc2ccc(C(F)(F)F)cn2)c1 [Example 190, N-(6-(2-Fluorophenyl)pyrazin-2-yl)-2-((5-(trifluoromethyl)pyridin-2-yl)amino)isonicotinamide] | 29 nM | 10000 nM | 68 nM | – | –
14 | Cc1cc(C(O)C2CC2)c(NC(=O)c2ccnc(Nc3ccc(C(F)(F)F)cn3)c2)cn1 (stereo not shown) [Example 106, N-(4-(Cyclopropyl(hydroxy)methyl)-6-methylpyridin-3-yl)-2-((5-(trifluoromethyl)pyridin-2-yl)amino)isonicotinamide] | 0.49 nM | 22 nM | 0.25 nM | – | –
15 | O=C(Nc1cnccc1OCC(F)(F)F)c1ccnc(Nc2ccc(C(F)(F)F)cn2)c1F [Example 169, 3-Fluoro-N-(4-(2,2,2-trifluoroethoxy)pyridin-3-yl)-2-((5-(trifluoromethyl)pyridin-2-yl)amino)isonicotinamide] | 10 nM | 3900 nM | 28 nM | – | –
16 | N#Cc1ccc(Nc2cc(C(=O)Nc3cnccc3-c3ccccc3)ccn2)nc1 [Example 10, 2-((5-Cyanopyridin-2-yl)amino)-N-(4-phenylpyridin-3-yl)isonicotinamide] | 0.58 nM | 27 nM | 0.98 nM | – | –

Row | Compound | IC50 (GSK3α) | IC50 (pTau) | IC50 (GSK3β; [1]) | IC50 (GSK3α; second value of the cell, 250 pM enzyme, 20 uM ATP, 20 hours at room temperature, read-out: GSK3β/α (nM): GSK3α IC50) | IC50 (GSK3β)
17 | COc1ccc(Nc2cc(C(=O)Nc3cncc(-c4ccccc4F)c3)ccn2)nc1OC [Example 151, 2-((5,6-Dimethoxypyridin-2-yl)amino)-N-(5-(2-fluorophenyl)pyridin-3-yl)isonicotinamide] | 2.4 nM | 510 nM | 6 nM | – | –
18 | NC(=O)c1ccc(Nc2cc(C(=O)Nc3cncc(-c4ccccc4F)c3)ccn2)nc1 [Example 160, 6-((4-((5-(2-Fluorophenyl)pyridin-3-yl)carbamoyl)pyridin-2-yl)amino)nicotinamide] | 7.6 nM | – | 16 nM | – | –
19 | CC(C)[S+]([O-])c1ccncc1NC(=O)c1ccnc(Nc2ccc(C(F)(F)F)cn2)c1 (stereo not shown) [Example 179, N-(4-(isopropylsulfinyl)pyridin-3-yl)-2-((5-(trifluoromethyl)pyridin-2-yl)amino)isonicotinamide] | 1.2 nM | – | 4.3 nM | – | –
20 | Cc1cc(C2(C3CC3)OCCO2)c(NC(=O)c2ccnc(Nc3ccc(C(F)(F)F)cn3)c2)cn1 [Example 105, N-(4-(2-Cyclopropyl-1,3-dioxolan-2-yl)-6-methylpyridin-3-yl)-2-((5-(trifluoromethyl)pyridin-2-yl)amino)isonicotinamide] | – | 2 nM | – | – | –
21 | COC(=O)/C=C/c1ccc(Nc2cc(C(=O)Nc3cncc(-c4ccccc4F)c3)ccn2)nc1 [Example 161] | 8 nM | – | 23 nM | – | –
22 | N#Cc1ccc(-c2cncc(NC(=O)c3ccnc(Nc4cccc(C#N)n4)c3)c2)cc1 [Example 162, N-(5-(4-Cyanophenyl)pyridin-3-yl)-2-((6-cyanopyridin-2-yl)amino)isonicotinamide] | 2.4 nM | – | – | – | 3.5 nM
23 | O=C(Nc1cnccc1-c1ccccn1)c1ccnc(Nc2ccc(C(F)(F)F)cn2)c1 [Example 43, N-([2,4′-Bipyridin]-3′-yl)-2-((5-(trifluoromethyl)pyridin-2-yl)amino)isonicotinamide] | 0.59 nM | – | 0.77 nM | – | –
24 | O=C(Nc1cncc(-c2ccccc2F)c1)c1ccnc(Nc2cccc(Cl)n2)c1 [Example 150] | – | 1100 nM | 3.5 nM | – | –
25 | COC(=O)c1cccc(Nc2cc(C(=O)Nc3cncc(-c4ccccc4F)c3)ccn2)n1 [Example 149, Methyl 6-((4-((5-(2-fluorophenyl)pyridin-3-yl)carbamoyl)pyridin-2-yl)amino)picolinate] | – | 1700 nM | 2.7 nM | – | –
26 | C=CCOc1ccc(-c2cnncc2NC(=O)c2ccnc(Nc3ccc(C(F)(F)F)cn3)c2)cc1 [Example 199, N-(5-(4-(Allyloxy)phenyl)pyridazin-4-yl)-2-((5-(trifluoromethyl)pyridin-2-yl)amino)isonicotinamide] | – | 470 nM | 8.7 nM | – | –
27 | CCc1nc(Nc2cc(C(=O)Nc3cncc(-c4ccccc4F)c3)ccn2)ccc1C#N [Example 148, 2-((5-Cyano-6-ethylpyridin-2-yl)amino)-N-(5-(2-fluorophenyl)pyridin-3-yl)isonicotinamide] | – | 360 nM | 4.5 nM | – | –
28 | O=C(Nc1cnc(F)cc1OCC(F)(F)F)c1ccnc(Nc2ccc(C(F)(F)F)cn2)c1 [Example 69, N-(6-Fluoro-4-(2,2,2-trifluoroethoxy)pyridin-3-yl)-2-((5-(trifluoromethyl)pyridin-2-yl)amino)isonicotinamide] | – | 165 nM | 2.6 nM | – | –
29 | O=C(Nc1cnccc1OCC(F)(F)F)c1cc(Nc2ccc(C(F)(F)F)cn2)ncc1F [Example 168, 5-Fluoro-N-(4-(2,2,2-trifluoroethoxy)pyridin-3-yl)-2-((5-(trifluoromethyl)pyridin-2-yl)amino)isonicotinamide] | 0.73 nM | – | 1.5 nM | – | –
30 | CS(=O)(=O)c1ccncc1NC(=O)c1ccnc(Nc2ccc(C(F)(F)F)cn2)c1 [Example 181, N-(4-(Methylsulfonyl)pyridin-3-yl)-2-((5-(trifluoromethyl)pyridin-2-yl)amino)isonicotinamide] | 0.77 nM | – | 1.2 nM | – | –
31 | O=C(Nc1cnccc1C1CCCCO1)c1ccnc(Nc2ccc(C(F)(F)F)cn2)c1 (stereo not shown) [Example 41, N-(4-(Tetrahydro-2H-pyran-2-yl)pyridin-3-yl)-2-((5-(trifluoromethyl)pyridin-2-yl)amino)isonicotinamide] | – | 120 nM | 13 nM | – | –
32 | O=C(Nc1cnncc1C(=O)C1CC1)c1ccnc(Nc2ccc(C(F)(F)F)cn2)c1 [Example 202, N-(5-(Cyclopropanecarbonyl)pyridazin-4-yl)-2-((5-(trifluoromethyl)pyridin-2-yl)amino)isonicotinamide] | 1.1 nM | – | 2.9 nM | – | –
